# According to ChEMBL document CHEMBL3137667, “[Drug-induced liver injury; fourteenth updated edition of the bibliographic database of liver injuries and related drugs]” (Gastroenterol Clin Biol, 2004):
# What was measured:
# [1] = Highest frequency of moderate liver toxicity observed during clinical trials, expressed as a percentage. [column '% BIOL' in source]; conditions: human
# [2] = Highest frequency of acute liver toxicity observed during clinical trials, expressed as a percentage. [column '% AIGUE' in source]; conditions: human
# [3] = Presence of at least one case with successful reintroduction. [column 'REINT' in source]; conditions: human
# [4] = Comments (NB not yet translated). [column 'COMMENTAIRES' in source]; conditions: human
# [5] = Times to onset, minimal and maximal, observed in the indexed observations. [column 'DELAI' in source]; conditions: human
# [6] = Proposed mechanism(s) of liver damage. [column 'MEC' in source]; conditions: human
# [7] = human, serum
# [8] = human, serum; remark: listed apart in the source
# [9] = human
# [10] = human; remark: listed apart in the source
# [11] = human; remark: listed apart in the source
# [12] = human, serum, 4383 h
# [13] = human; remark: listed apart in the source
# [14] = human; remark: listed apart in the source
# [15] = human; remark: listed apart in the source
# [16] = human; remark: listed apart in the source
# [17] = human; remark: listed apart in the source
# [18] = human; remark: listed apart in the source
# [19] = human; remark: listed apart in the source
# 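For Hepatotoxicity (association with vascular disease) in this document: count of indexed literature references reporting vascular liver injury in humans, e.g. peliosis hepatitis, hepatic veno-occlusive disease or Budd-Chiari syndrome.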
# 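For Hepatotoxicity (benign tumour) in this document: value is a count of indexed literature references citing a benign tumour confirmed by histopathology.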
# 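For Hepatotoxicity (choleostasis) in this document: human cholestatic liver injury, shown by histopathology or by peak ALT or AST elevation over alkaline phosphatase ratio below 2, value counts indexed literature reports.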
# 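For Hepatotoxicity (chronic liver disease) in this document: chronic liver injury confirmed by histopathology or persistently raised serum aminotransferase activity beyond 6 months, value given as the count of indexed literature references.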
# 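For Hepatotoxicity (cirrhosis) in this document: value is a count of indexed literature references reporting cirrhosis confirmed by histopathology.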
# 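For Hepatotoxicity (cytolytic) in this document: human cytolytic liver injury, shown by histopathology or by a ratio above 5 of peak ALT or AST elevation to alkaline phosphatase elevation, value counts indexed references.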
# 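For Hepatotoxicity (granulomatous hepatitis) in this document: value is a count of indexed literature references reporting granulomatous liver disease confirmed by histopathology.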
# 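For Hepatotoxicity (malignant tumour) in this document: malignant tumour confirmed by histopathology, value gives the count of indexed literature references reporting it.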
# 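For Hepatotoxicity (severe hepatitis) in this document: human clinical data: severe hepatitis, meaning potentially life-threatening liver failure or clinically observed cases, the value counts how many indexed literature references report it.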
# 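For Hepatotoxicity (steatosis) in this document: steatosis confirmed by histopathology, value is the count of indexed references.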
Compound,Hepatotoxicity (moderate) [1] [%],Hepatotoxicity (acute) [2] [%],Hepatotoxicity (successful reintroduction) [3],Hepatotoxicity (comment) [4],Hepatotoxicity (time to onset) [5],Hepatotoxicity (mechanism) [6],Hepatotoxicity (moderate) [7],Hepatotoxicity (acute) [8],Hepatotoxicity (cytolytic) [9],Hepatotoxicity (choleostasis) [10],Hepatotoxicity (severe hepatitis) [11],Hepatotoxicity (chronic liver disease) [12],Hepatotoxicity (cirrhosis) [13],Hepatotoxicity (granulomatous hepatitis) [14],Hepatotoxicity (association with vascular disease) [15],Hepatotoxicity (steatosis) [16],Hepatotoxicity (malignant tumour) [17],Hepatotoxicity (benign tumour) [18],Hepatotoxicity (animal toxicity known) [19],also measured
Cc1onc(-c2c(F)cccc2Cl)c1C(=O)N[C@@H]1C(=O)N2[C@@H]1SC(C)(C)[C@@H]2C(=O)O [FLOXACILLIN],3.4,0,yes,CHOLESTASE_PROLONGEE CHOLANGITE #CBP,12 hours - 2 months,Allergic,4,26,2,20,2,1,2,1,0,2,0,0,yes,
O=P1(N(CCCl)CCCl)NCCCO1 (centres undefined) [CYCLOPHOSPHAMIDE ANHYDROUS],,,yes,CHC HNR MVO REACTIVATION_HVB,2 days - 21 years,,16,18,,,,0,0,,44,0,4,0,yes,Hepatotoxicity (moderate) ([1]; Liver): 85%; Hepatotoxicity (acute) ([2]; Liver): 2.6%; Hepatotoxicity (mechanism) ([6]; Liver): Dose-dependant; Hepatotoxicity (cytolytic) ([9]; Liver): 15; Hepatotoxicity (choleostasis) ([10]; Liver): 2; Hepatotoxicity (severe hepatitis) ([11]; Liver): 11; Hepatotoxicity (granulomatous hepatitis) ([14]; Liver): 0
CISPLATIN,93,7,yes,CHOLANGITE/IAH,1 day - 2 weeks,Dose-dependant,23,3,2,1,1,0,0,0,2,1,0,0,yes,
FC(F)OC(F)(F)C(F)Cl (centres undefined),58,0.7,yes,RC/HALOTHANE AC_ANTI-TFA,2 hours - 19 days,"Allergic, Reactive metabolite",15,21,18,7,10,0,0,1,0,2,0,0,yes,
Cc1ccc(S(=O)(=O)NC(=O)NC2CCCCC2)cc1N [METAHEXAMIDE],24,4.4,yes,PERICHOLANGITE RC/CARBUTAMIDE,4 days - 1 week,Dose-dependant,6,11,7,4,2,0,1,0,0,0,0,0,yes,
CC[C@]1(O)C[C@H]2CN(CCc3c([nH]c4ccccc34)[C@@](C(=O)OC)(c3cc4c(cc3OC)N(C=O)[C@H]3[C@@](O)(C(=O)OC)[C@H](OC(C)=O)[C@]5(CC)C=CCN6CC[C@]43[C@@H]65)C2)C1 [VINCRISTINE],7.3,0,yes,I/RADIOTHERAPIE REACTIVATION_HVB,3 days - 20 days,Dose-dependant,3,5,4,0,4,0,0,0,7,0,1,0,yes,
